Experimental data published in US8114991B2, “Amino-1,3,5-triazines N-substituted with chiral bicyclic radicals, process for their preparation, compositions thereof, and their use as herbicides and plant growth regulators” (Bayer Cropscience AG, priority 2003, dated 2012).

Assays:
[1] = system: harmful plants such as Stellaria media, Lolium multiforum, Amaranthus retroflexus, Sinapis alba, Avena sativa and Setaria viridis; assay: Pre-emergence effect on weeds (greenhouse pot test); assay type: in vivo; conditions: application rate of 1 kg or less of active ingredient per hectare; scored after 3 to 4 weeks by comparison with untreated controls
Excerpt: Seeds or rhizome pieces of monocotyledonous and dicotyledonous weed plants were placed in sandy loam in plastic pots and covered with soil. The compounds according to the invention, which were formulated in the form of wettable powders or emulsion concentrates, were then applied to the surface of the soil cover as aqueous suspension or emulsion at various dosages with an application rate of 600 to 800 l of water per ha (converted).
After the treatment, the pots were placed into a greenhouse and kept under good growth conditions for the weeds. The plant or emergence damage was scored visually after the test plants have emerged after an experimental time of 3 to 4 weeks by comparison with untreated controls.

[2] = system: harmful plants such as Sinapis alba, Echinochloa crus-galli, Lolium multiflorum, Stellaria media, Cyperus iria, Amaranthus retroflexus, Setaria viridis, Avena …; assay: Post-emergence effect on weeds (greenhouse pot test); assay type: in vivo; conditions: application rate of 2 kg or less of active ingredient per hectare; treated in the three-leaf stage; scored after approx. 3 to 4 weeks by comparison with untreated controls

| Structure (SMILES) | pre-emergence control of harmful plants (plant or emergence damage scored visually) [1] | herbicidal post-emergence activity against harmful plants (scored visually) [2] |
| --- | --- | --- |
| C[C@@H](Cl)c1nc(N)nc(N[C@@H]2CCCc3ccccc32)n1 [Compound 1.28] | very good pre-emergence control | very good herbicidal post-emergence activity |
| C[C@@H](Cl)c1nc(N)nc(N[C@@H]2CCOc3ccccc32)n1 [Compound 1.31] | very good pre-emergence control | very good herbicidal post-emergence activity |
| Cc1ccc2c(c1C)OCC[C@H]2Nc1nc(N)nc([C@@H](C)F)n1 [Compound 1.66] | very good pre-emergence control | very good herbicidal post-emergence activity |
| C[C@@H](F)c1nc(N)nc(N[C@@H]2CCOc3c(F)cccc32)n1 [Compound 1.67] | very good pre-emergence control | very good herbicidal post-emergence activity |
| CCc1ccc2c(c1)[C@H](Nc1nc(N)nc([C@@H](C)F)n1)CC2 [Compound 1.68] | very good pre-emergence control | very good herbicidal post-emergence activity |
| COc1ccc2c(c1)[C@H](Nc1nc(N)nc([C@@H](C)F)n1)CC2 [Compound 1.69] | very good pre-emergence control | very good herbicidal post-emergence activity |
| Cc1ccc2c(c1)[C@H](Nc1nc(N)nc([C@@H](C)F)n1)[C@@H](C)C2 [Compound 2.2] | very good pre-emergence control | very good herbicidal post-emergence activity |
| C[C@@H](F)c1nc(N)nc(N[C@H]2c3cc(Cl)ccc3C[C@@H]2C)n1 [Compound 2.4] | very good pre-emergence control | very good herbicidal post-emergence activity |
| C[C@@H](F)c1nc(N)nc(N[C@H]2c3ccccc3CC[C@@H]2C)n1 [Compound 2.11] | very good pre-emergence control | very good herbicidal post-emergence activity |
| Cc1ccc2c(c1)[C@H](Nc1nc(N)nc([C@@H](C)Cl)n1)[C@@H](C)C2 [Compound 2.25] | very good pre-emergence control | very good herbicidal post-emergence activity |
| Cc1ccc2c(c1)[C@H](Nc1nc(N)nc([C@@H](C)Cl)n1)[C@@H](C)CC2 [Compound 2.28] | very good pre-emergence control | very good herbicidal post-emergence activity |
| C[C@H](F)c1nc(N)nc(N[C@@H]2CCc3ccccc32)n1 [Compound 3.1] | very good pre-emergence control | very good herbicidal post-emergence activity |
| Cc1ccc2c(c1)[C@H](Nc1nc(N)nc([C@H](C)F)n1)CC2 [Compound 3.2] | very good pre-emergence control | very good herbicidal post-emergence activity |
| Cc1cc2c(cc1C)[C@H](Nc1nc(N)nc([C@H](C)F)n1)CC2 [Compound 3.7] | very good pre-emergence control | very good herbicidal post-emergence activity |
| C[C@H](F)c1nc(N)nc(N[C@@H]2CCCc3ccccc32)n1 [Compound 3.11] | very good pre-emergence control | very good herbicidal post-emergence activity |
| Cc1cc(C)c2c(c1)[C@H](Nc1nc(N)nc([C@H](C)F)n1)CCC2 [Compound 3.15] | very good pre-emergence control | very good herbicidal post-emergence activity |
| C[C@H](F)c1nc(N)nc(N[C@@H]2CCOc3ccccc32)n1 [Compound 3.20] | very good pre-emergence control | very good herbicidal post-emergence activity |
| C[C@H](Cl)c1nc(N)nc(N[C@@H]2CCc3ccccc32)n1 [Compound 3.24] | very good pre-emergence control | very good herbicidal post-emergence activity |

| Structure (SMILES) | pre-emergence control of harmful plants (plant or emergence damage scored visually) [1] | herbicidal post-emergence activity against harmful plants (scored visually) [2] |
| --- | --- | --- |
| C[C@H](F)c1nc(N)nc(N[C@H]2c3ccccc3C[C@@H]2C)n1 [Compound 4.1] | very good pre-emergence control | very good herbicidal post-emergence activity |
| Cc1ccc2c(c1)CC(C)C2Nc1nc(N)nc(C(C)F)n1 (stereo not drawn) [Compound 4.2] | very good pre-emergence control | very good herbicidal post-emergence activity |
| C[C@@H]1Cc2ccccc2[C@@H]1Nc1nc(N)nc([C@@H](C)F)n1 [Compound 5.1] | very good pre-emergence control | very good herbicidal post-emergence activity |
| Cc1ccc2c(c1)[C@H](Nc1nc(N)nc([C@@H](C)F)n1)[C@H](C)C2 [Compound 5.2] | very good pre-emergence control | very good herbicidal post-emergence activity |
| CC(F)c1nc(N)nc(NC2c3ccccc3CC2C)n1 (stereo not drawn) [Compound 6.1] | very good pre-emergence control | very good herbicidal post-emergence activity |
| Cc1ccc2c(c1)C(Nc1nc(N)nc(C(C)F)n1)C(C)C2 (stereo not drawn) [Compound 6.2] | very good pre-emergence control | very good herbicidal post-emergence activity |
| Cc1nc(N)nc(N[C@H]2c3ccccc3C[C@@H]2C)n1 [Compound 7.1] | very good pre-emergence control | very good herbicidal post-emergence activity |
| Cc1ccc2c(c1)[C@H](Nc1nc(C)nc(N)n1)[C@@H](C)C2 [Compound 7.2] | very good pre-emergence control | very good herbicidal post-emergence activity |
| Cc1nc(N)nc(N[C@H]2c3cc(F)ccc3C[C@@H]2C)n1 [Compound 7.3] | very good pre-emergence control | very good herbicidal post-emergence activity |
| Cc1nc(N)nc(N[C@H]2c3cc(Cl)ccc3C[C@@H]2C)n1 [Compound 7.4] | very good pre-emergence control | very good herbicidal post-emergence activity |
| Cc1nc(N)nc(N[C@H]2c3ccccc3CC[C@@H]2C)n1 [Compound 7.11] | very good pre-emergence control | very good herbicidal post-emergence activity |
| CC(C)c1nc(N)nc(N[C@H]2c3ccccc3C[C@@H]2C)n1 [Compound 7.24] | very good pre-emergence control | very good herbicidal post-emergence activity |
| CCCc1nc(N)nc(N[C@H]2c3ccccc3C[C@@H]2C)n1 [Compound 7.47] | very good pre-emergence control | very good herbicidal post-emergence activity |
| CCCc1nc(N)nc(N[C@H]2c3cc(C)ccc3C[C@@H]2C)n1 [Compound 7.48] | very good pre-emergence control | very good herbicidal post-emergence activity |
| CCCc1nc(N)nc(N[C@H]2c3ccccc3CC[C@@H]2C)n1 [Compound 7.57] | very good pre-emergence control | very good herbicidal post-emergence activity |
| COCc1nc(N)nc(N[C@H]2c3ccccc3C[C@@H]2C)n1 [Compound 7.70] | very good pre-emergence control | very good herbicidal post-emergence activity |
| COCc1nc(N)nc(N[C@H]2c3cc(C)ccc3C[C@@H]2C)n1 [Compound 7.72] | very good pre-emergence control | very good herbicidal post-emergence activity |
| CCc1nc(N)nc(N[C@H]2c3ccccc3C[C@@H]2C)n1 [Compound 7.74] | very good pre-emergence control | very good herbicidal post-emergence activity |
